We go through 40 molecules from ChEMBL document CHEMBL1139759, “Discovery and SAR studies of novel GlyT1 inhibitors” (Bioorg Med Chem Lett, 2007).

In data set [1] the target is T1, Sodium- and chloride-dependent glycine transporter 1 (Homo sapiens, UniProt P48067).
T1 sequence (P48067 whole entry): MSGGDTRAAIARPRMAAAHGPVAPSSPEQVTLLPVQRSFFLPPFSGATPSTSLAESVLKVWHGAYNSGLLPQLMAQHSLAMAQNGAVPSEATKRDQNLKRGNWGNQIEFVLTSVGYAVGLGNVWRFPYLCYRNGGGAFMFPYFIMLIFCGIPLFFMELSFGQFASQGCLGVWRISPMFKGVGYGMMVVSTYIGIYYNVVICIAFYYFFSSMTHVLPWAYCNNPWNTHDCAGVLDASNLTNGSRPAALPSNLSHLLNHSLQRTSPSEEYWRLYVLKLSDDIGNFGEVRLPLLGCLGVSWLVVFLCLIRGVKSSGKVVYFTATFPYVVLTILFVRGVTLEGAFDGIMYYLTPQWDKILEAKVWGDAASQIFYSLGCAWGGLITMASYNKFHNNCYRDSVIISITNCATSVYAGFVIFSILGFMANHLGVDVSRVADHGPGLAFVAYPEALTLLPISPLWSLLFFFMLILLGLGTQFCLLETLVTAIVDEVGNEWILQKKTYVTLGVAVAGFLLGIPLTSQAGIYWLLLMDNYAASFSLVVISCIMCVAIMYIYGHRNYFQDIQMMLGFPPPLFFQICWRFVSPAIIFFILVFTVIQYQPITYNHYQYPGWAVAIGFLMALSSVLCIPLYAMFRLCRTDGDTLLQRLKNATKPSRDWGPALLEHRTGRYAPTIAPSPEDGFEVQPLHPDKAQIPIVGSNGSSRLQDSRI
Put plainly: Inhibition of [14C]glycine reuptake at human GlyT1 expressed in BE(2)-C cells. Type of data set: cell-based.

For data set [2], the target named is T2, Sodium- and chloride-dependent glycine transporter 2 (Homo sapiens, UniProt Q9Y345).
T2 sequence (Q9Y345 whole entry): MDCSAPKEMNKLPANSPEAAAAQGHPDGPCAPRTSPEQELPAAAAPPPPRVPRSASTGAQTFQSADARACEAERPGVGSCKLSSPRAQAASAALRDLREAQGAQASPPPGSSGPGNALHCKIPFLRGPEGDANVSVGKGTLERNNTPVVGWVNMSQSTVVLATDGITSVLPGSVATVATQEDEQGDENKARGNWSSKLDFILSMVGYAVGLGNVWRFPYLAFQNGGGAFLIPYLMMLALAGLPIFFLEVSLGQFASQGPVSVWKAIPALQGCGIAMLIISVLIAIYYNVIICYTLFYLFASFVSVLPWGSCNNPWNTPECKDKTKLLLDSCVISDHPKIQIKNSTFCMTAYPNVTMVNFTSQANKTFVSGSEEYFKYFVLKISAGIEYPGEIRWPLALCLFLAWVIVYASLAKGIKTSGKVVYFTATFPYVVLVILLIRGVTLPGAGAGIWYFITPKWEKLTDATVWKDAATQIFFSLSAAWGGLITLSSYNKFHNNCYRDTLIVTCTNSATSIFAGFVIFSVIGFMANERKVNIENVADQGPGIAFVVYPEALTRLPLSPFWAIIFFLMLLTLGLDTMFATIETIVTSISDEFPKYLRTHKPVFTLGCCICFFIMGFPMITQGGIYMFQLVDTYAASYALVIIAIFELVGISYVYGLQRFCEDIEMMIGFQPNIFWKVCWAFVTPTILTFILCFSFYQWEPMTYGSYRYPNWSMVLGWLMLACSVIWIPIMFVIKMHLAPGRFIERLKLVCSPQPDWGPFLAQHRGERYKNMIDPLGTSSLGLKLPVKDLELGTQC
In words: Inhibition of [14C]glycine reuptake at human GlyT2 expressed in BE(2)-C cells. Type of data set: cell-based.

A further data set concerns Rattus norvegicus. Put plainly: Increase in glycine level of Sprague-Dawley rat cerebrospinal fluid at 30 mg/kg, sc. Type of data set: functional. The note with it: route subcutaneous.
In a further data set the test system is Cerebrospinal fluid. Put plainly: Drug level in rat cerebrospinal fluid at 30 mg/kg, sc. Type of data set: ADME, organism-based. Also on record: dose 30 mg/kg, route subcutaneous. The note with it: in vivo.

SMILES strings stand for the structures.

For orientation: IC50 means the concentration that gives 50% inhibition. Read a low IC50 as higher potency. For the molecule `COc1ccc(-c2ccc(OCCN(C)CC(=O)O)c(C(=O)c3cccs3)c2)cc1`, the half-maximal inhibitory concentration (IC50) in data set [1] was 27 nM; in data set [2] it was over 30000 nM.
The corresponding values for `CN(CCOc1ccc(-c2ccc3c(c2)OCCO3)cc1-c1ccccc1Cl)CC(=O)O` are 14 nM and over 30000 nM.
The corresponding values for `COc1cccc(-c2ccc(OCCN(C)CC(=O)O)c(C(=O)c3cccs3)c2)c1` are 104 nM and over 30000 nM.
On to `CN(CCOc1ccc(-c2cccc(Cl)c2)cc1C(=O)c1cccs1)CC(=O)O`, for which the IC50 was 26 nM in data set [1] and over 30000 nM in data set [2].
The corresponding values for `COc1ccc(-c2ccc(OCCN(C)CC(=O)O)c(-c3cccs3)c2)cc1C` are 161 nM and over 30000 nM.
The corresponding values for `CN(CCOc1ccc(-c2ccccc2)cc1-c1ccsc1)CC(=O)O` are 139 nM and over 30000 nM.
As for `CN(CCOc1ccc(-c2ccccc2)cc1-c1ccccc1)CC(=O)O`, the values for the half-maximal inhibitory concentration (IC50) in data set [1] and in data set [2] were 229 nM and over 30000 nM, respectively.
The like results for `Cc1ccc(-c2ccc(OCCN(C)CC(=O)O)c(C(=O)c3cccs3)c2)cc1C` were, in that order, 76 nM and over 30000 nM.
The like results for `Cc1cccc(-c2ccc(OCCN(C)CC(=O)O)c(C(=O)c3cccs3)c2)c1` were, in that order, 45 nM and over 30000 nM.
The like results for `CN(CCOc1ccc(-c2ccccc2)cc1CC1CCCCC1)CC(=O)O` were, in that order, 289 nM and over 30000 nM.
Consider `CN(CCOc1ccc(-c2ccc3c(c2)OCO3)cc1-c1cccs1)CC(=O)O`, for which the results for the 50% inhibitory concentration (IC50) in data set [1] and in data set [2] were 34 nM and over 30000 nM, respectively.
The like results for `CN(CCOc1ccc(-c2ccccc2)cc1-c1cccc2ccccc12)CC(=O)O` were, in that order, 496 nM and over 30000 nM.
The like results for `CN(CCOc1ccc(-c2ccccc2)cc1C(=O)C1CCCCC1)CC(=O)O` were, in that order, 70 nM and over 30000 nM.
The like results for `CN(CCOc1ccc(-c2ccccc2)cc1-c1cccc(Cl)c1)CC(=O)O` were, in that order, 674 nM and over 30000 nM.
In the case of `CN(CCOc1ccc(-c2ccccc2)cc1-c1cccs1)CC(=O)O`, the concentration for half-maximal inhibition (IC50) in data set [1] was 70 nM; in data set [2], over 30000 nM. Further, the Activity in the data set with Rattus norvegicus is listed as 196%. Further, the Drug uptake in the data set on Cerebrospinal fluid worked out at 113 ng/mL.
Take `CN(CCOc1ccc(-c2ccccc2)cc1-c1ccccc1F)CC(=O)O`: the IC50 is 108 nM in data set [1] and over 30000 nM in data set [2].
The corresponding values for `COc1ccc(-c2ccc(OCCN(C)CC(=O)O)c(-c3ccccc3Cl)c2)cc1C` are 28 nM and over 30000 nM.
The corresponding values for `CN(CCOc1ccc(-c2ccccc2)cc1Cc1ccccc1)CC(=O)O` are 85 nM and over 30000 nM.
The corresponding values for `CN(CCOc1ccc(-c2ccccc2)cc1C(=O)c1ccccc1)CC(=O)O` are 65 nM and over 30000 nM.
Consider `CN(CCOc1ccc(C(F)(F)F)cc1C(=O)c1cccs1)CC(=O)O`, for which the IC50 in data set [1] was 702 nM; in data set [2] it was over 30000 nM.
The corresponding values for `COc1ccc(-c2ccc(OCCN(C)CC(=O)O)c(C(=O)c3cccs3)c2)cc1C` are 18 nM and over 30000 nM.
The like results for `CN(CCOc1ccc(-c2ccc3c(c2)CCO3)cc1-c1ccccc1Cl)CC(=O)O` were, in that order, 13 nM and over 30000 nM.
The molecule `CN(CC[C@@H](Oc1ccc(-c2ccccc2)cc1)c1ccc(F)cc1)CC(=O)O` showed a 50% inhibitory concentration (IC50) in data set [2] of over 30000 nM. The molecule further came in with an Activity in the data set with Rattus norvegicus of 204%. Moreover, the Drug uptake in the data set with Cerebrospinal fluid turned out to be 47 ng/mL.
On to `CN(CCOc1ccc(-c2ccc(Cl)cc2)cc1C(=O)c1cccs1)CC(=O)O`, for which the figures for the half-inhibitory concentration (IC50) in data set [1] and in data set [2] were 68 nM and over 30000 nM, respectively.
The like results for `CN(CCOc1ccc(-c2ccccc2)cc1-c1ccc(Cl)cc1)CC(=O)O` were, in that order, 965 nM and over 30000 nM.
The corresponding values for `CN(CCOc1ccc(-c2ccccc2Cl)cc1C(=O)c1cccs1)CC(=O)O` are 175 nM and over 30000 nM.
Turning to `CN(CCOc1ccc(-c2ccccc2)cc1C(=O)c1cccs1)CC(=O)O`, the IC50 was 45 nM in data set [1] and over 30000 nM in data set [2]. Besides, the Activity with Rattus norvegicus worked out at 114%. In the data set on Cerebrospinal fluid, this molecule had a Drug uptake of 15 ng/mL.
In the case of `CN(CCOc1ccc(-c2ccc3c(c2)OCCO3)cc1-c1cccs1)CC(=O)O`, the values for the IC50 in data set [1] and in data set [2] were 25 nM and over 30000 nM, respectively.
The like results for `COc1ccc(-c2ccc(OCCN(C)CC(=O)O)c(C(=O)c3cccs3)c2)cc1OC` were, in that order, 834 nM and over 30000 nM.
The like results for `Cc1ccccc1-c1cc(-c2ccccc2)ccc1OCCN(C)CC(=O)O` were, in that order, 56 nM and over 30000 nM.
As for `CN(CCOc1ccc(-c2ccc3c(c2)CCO3)cc1-c1cccs1)CC(=O)O`, the IC50 was 17 nM in data set [1] and over 30000 nM in data set [2].
The like results for `CN(CCOc1ccc(-c2ccc3c(c2)OCO3)cc1-c1ccccc1Cl)CC(=O)O` were, in that order, 12 nM and over 30000 nM.
The like results for `COc1ccccc1-c1cc(-c2ccccc2)ccc1OCCN(C)CC(=O)O` were, in that order, 351 nM and over 30000 nM.
For `CN(CCOc1ccc(-c2ccccc2)cc1-c1ccccc1Cl)CC(=O)O`, the IC50 in data set [1] was 53 nM; in data set [2] it was over 30000 nM. The Activity in the data set on Rattus norvegicus stood at 155%. The molecule also had a Drug uptake with Cerebrospinal fluid of 25 ng/mL.
Turning to `CN(CCOc1ccc(-c2ccccc2)cc1C1CCCCC1)CC(=O)O`, the concentration for half-maximal inhibition (IC50) in data set [1] is 251 nM; in data set [2], over 30000 nM.
Regarding `Cc1ccccc1-c1ccc(OCCN(C)CC(=O)O)c(C(=O)c2cccs2)c1`, the results for the IC50 in data set [1] and in data set [2] were 632 nM and over 30000 nM, respectively.
The like results for `CN(CCOc1ccc(-c2ccccc2)cc1-c1nccs1)CC(=O)O` were, in that order, 957 nM and over 30000 nM.
Take `Cc1ccc(-c2ccc(OCCN(C)CC(=O)O)c(C(=O)c3cccs3)c2)cc1`: the IC50 was 59 nM in data set [1] and over 30000 nM in data set [2].
The corresponding values for `CN(CCOc1ccc(-c2ccccc2)cc1Cc1cccs1)CC(=O)O` are 40 nM and over 30000 nM.
The corresponding values for `CN(CCOc1ccc(-c2ccc3c(c2)OCO3)cc1C(=O)c1cccs1)CC(=O)O` are 19 nM and over 30000 nM.
